Measurements: PubChem BioAssay AID2750 (The Scripps Research Institute Molecular Screening Center, 2010)
pIC50: −log10 of the molar value. Values joined by “and” are separate entries in the source; they are usually repeats but may differ in a detail not shown here. Equal entries are not always repeated.

System: DLD-1 KLF5 promoter-luciferase reporter, luminescence
Assay: KLF5 promoter reporter inhibitors, late-stage follow-up, luminescence, DLD-1 cells, powder samples (AID 2750);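 active = compounds whose IC50 against KLF5 promoter reporter light is 10 micromolar or lower; inactive = the rest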

pIC50, active:
O=C(NCCc1ccccc1F)c1ccc2c(c1)OCCO2 6.79
O=C(NCCc1ccccc1)c1ccc2c(c1)OCCCO2 6.66
CN(C(=O)COC(=O)/C=C/c1cccc([N+](=O)[O-])c1)C1CCS(=O)(=O)C1 (stereo unspecified) 6.22
Cc1cc(C(=O)CN2C(=O)c3ccccc3S2(=O)=O)c(C)n1CC1CCCO1 (stereo unspecified) 7.17
CC(C)(C)c1ccc(C(=O)O/N=C(\N)c2ccccn2)cc1 6.23
COc1ccc(C(=O)Nc2ccccc2C(=O)NN=Cc2ccc(O)c(OC)c2)cc1 7.95
CCOC(=O)c1sc(NC(=O)c2ccc3ncsc3c2)nc1C 7.66 and 7.73
CC(C)(C)c1ccc(-c2noc(CCC(=O)Nc3cccnc3)n2)cc1 7.14 and 7.24
CCCc1ccc(-c2ccc(/C=C/C(=O)O)cc2)nc1 7.12
CN1CCN(c2ccc(-c3ccc4ccccc4n3)cc2)CC1 7.57
COc1cccc(C=NNc2ccc(C(=O)O)cc2)c1O 7.98
COc1ccc(OCc2cccc(C(=O)Nn3cc([N+](=O)[O-])cn3)c2)cc1 6.45
c1ccc(-c2ccc(-c3nc(-c4ccccn4)no3)cc2)cc1 6.55
CCCc1ccc(C(=O)O/N=C(\N)c2ccccn2)cc1 6.88
CCOC(=O)c1sc(NC(=O)c2cc3c(s2)CCC(C)C3)nc1C (stereo unspecified) 7.70
Cc1ccc2nc(NC(=O)CCCc3nc4ccccc4s3)sc2c1 6.74
